{
  "source": "patent US9980942B2",
  "about": "“Rejuvenation of precursor cells” (Children's Hospital Medical Center, priority 2012, dated 2018)",
  "key": {"[1]": {"test_system": "aged LT-HSCs", "assay": "Apoptosis and cell cycle staining (Hoechst/Pyronin Y, Annexin V)", "assay_type": "cell-based, mouse", "conditions": "5 μM CASIN, 16 hrs", "protocol": "Hoechst/PY staining was performed as previously described (Passegue et al., 2005). Briefly, 25,000 FACS-sorted LT-HSCs were incubated for 16 hrs in HBSS+10% FBS±CASIN (5 μM) in a water jacketed incubator at 37° C., 5% CO2, 3% O2. Then HOECHST 33342 (Invitrogen) was added directly to the medium at a final concentration of 20 μg/ml and samples were kept in incubation at 37° C., 5% CO2, 3% O2 for 45 min. PironinY (Sigma-Aldrich) was then added at a concentration of 1 μg/ml, and cells were incubated for additional 15 minutes. Cells were resuspended and incubated with anti-Annexin V (BD Pharmingen) according to manufacturer's instruction, washed and immediately analyzed on a LSRII (BD Biosciences)."}, "[2]": {"test_system": "aged LT-HSCs", "assay": "Immunofluorescence polarity scoring of Cdc42 and tubulin", "assay_type": "cell-based, mouse", "protocol": "Freshly sorted LT-HSCs were seeded on fibronectin-coated glass coverslips in HBSS+10% FBS. CASIN (referred to in (Peterson et al., 2006) as Pirl1-related compound 2) was obtained from Chembridge Corporation, and purified to greater than 99% by high-performance liquid chromatography. After 16 hours of incubation at 37° C., 5% CO2, 3% O2, cells were fixed with BD Cytofix Fixation Buffer (BD Biosciences).\nAfter fixation cells were gently washed with PBS, permeabilized with 0.2% Tryton X-100 (Sigma) in PBS for 20 minutes and blocked with 10% Donkey Serum (Sigma) for 30 minutes. Primary and secondary antibodies incubations were performed for 1 hr at room temperature. […] The cells were coimmunostained with an anti-alpha tubulin antibody (Abcam, rat monoclonal ab6160) detected with an anti-rat AMCA-conjugated secondary antibody or an anti-rat DyLight 488-conjugated antibody (Jackson ImmunoResearch), an anti-Cdc42 antibody (Millipore, rabbit polyclonal) detected with an anti-rabbit DyLight 549-conjugated antibody (Jackson ImmunoResearch) and an anti-Pericentrin-2 antibody (Santa Cruz Biotechnology, goat polyclonal) detected with an anti-goat MCAconjugated antibody (Jackson ImmunoResearch). […] Images were analyzed with AxioVision 4.6 software. Alternatively, samples were analyzed with an LSM710 confocal microscope (Zeiss) equipped with a 63X objective. […]"}, "[3]": {"test_system": "intestinal epithelium", "assay": "In vivo rejuvenation of intestinal epithelium (immunohistochemistry)", "conditions": "vs untreated aged mice", "protocol": "(§1) To test the extent to which CASIN rejuvenates skin and intestinal epithelium in vivo, aged (22-24 month old B1 6) and young (10-12 week old B1 6) mice were injected with CASIN twice daily (2.4 mg/Kg in PBS and 15% EtOH). A group of control mice in each age group were not given the drug. The injections were given 6 hours apart for 5 days. After 28 days, the mice were sacrificed and skin and intestinal samples were processed for immunohistochemistry.\nTo further assess the effects of in vivo administration of CASIN on aging parameters in the intestinal epithelium, aged mice were treated with CASIN as described in Example 5. After 28 days, the mice were sacrificed and intestinal samples were processed for immunohistochemistry, including staining for intestinal stem cell markers Bmi1 and Lgr5."}, "[4]": {"test_system": "skin epithelium", "assay": "In vivo rejuvenation of skin epithelium (immunohistochemistry, skin thickness)", "design": "species or system mice", "protocol": "as §1\nTo further assess the effects of in vivo administration of CASIN on aging parameters in the skin, aged mice were treated with CASIN as described in Example 5. The treated and untreated aged and young mice were then tested for skin thickness."}, "[5]": {"test_system": "dorsal skin", "assay": "Wound healing of full-thickness excision wounds after CASIN injection", "assay_type": "in vivo, mice", "protocol": "To further assess the effects of in vivo administration of CASIN on aging parameters in the skin, aged mice are treated with CASIN as described in Example 5. The treated and untreated aged and young mice are then tested for and wound healing, as described below.\nOn day 28 after initial treatment with CASIN, each mouse is tested with 25 mm oblong full-thickness excision wounds (6 mice of each type per experiment), including the striated muscle layer (panniculus carnosus), on the dorsal skin of treated and untreated mice. One day after surgery a clear thin film of dried exudate covers the wounds in both untreated and treated mice. Build-up of dehydrated wound crusts or scabs begin at day 3 and become subsequently more extensive. In the aged, untreated mice, scabs are thicker and extravasation of blood, visible in the gaps within the scabs, is more frequent and extensive than that in the treated mice. In control young mice, and in treated aged mice, loss of wound scabs begins at day 17 and is complete in all mice by day 24 with wounds well-healed and epithelial covering restored. In contrast, the scabs in untreated aged mice start to come off partially around day 14, resulting in a scab with a gaping red wound field, which is evident even at 22 days. Healing of untreated aged mice wounds remains incomplete on day 24, and complete healing in all mice is observed between 25 and 31 days. These experiments indicate that transient treatment (days 1-5) with CASIN causes improved healing of skin wounds."}, "[6]": {"test_system": "skin", "assay": "Topical rejuvenation of dermal tissue", "assay_type": "in vivo", "conditions": "aged mice, topical non-transdermal formulation", "protocol": "To further assess the effects of in vivo administration of CASIN on aging parameters in the skin, aged mice are treated with CASIN as described in Example 5. However, instead of intraperitoneal injection, CASIN is administered topically in a formulation designed for non-transdermal use. The treated and untreated aged and young mice are then tested for skin thickness and wound healing."}, "[7]": {"assay": "Weight of young and aged mice after CASIN", "assay_type": "in vivo, C57BL/6 mice", "conditions": "aged mice, 2.4 mg/kg twice a day for 5 days intraperitoneal, after 1 week", "protocol": "CASIN was given at a dose of 2.4 mg/kg twice a day 6 hours apart for 5 days via intraperitoneal injection in both young (10-12 wk old) and aged (22-24 month old) C57BL/6 mice. Aged C57BL/6 mice present with elevated Cdc42 activity in multiple tissues. Weight of the mice was determined in the young and aged control group (no CASIN, just vehicle (PBS/15% Ethanol)) at initiation of the experiment and after 1 week, as well as in the CASIN treated groups (young and aged) at initiation and 1 week after."}, "[8]": {"conditions": "aged mice treated as in Example 5, after 28 days"}, "[9]": {"conditions": "aged mice treated as in Example 5"}, "[10]": {"conditions": "treated aged mice, 25 mm full-thickness excision wounds"}},
  "note": "Entries after “also recorded” stand apart in the source; their conditions may differ.",
  "data": [
    {"smiles": "OCCNC1CCCc2c1[nH]c1ccc(-c3ccccc3)cc21", "note": "(stereo not drawn) [CASIN]", "values": [
      {"measurement": "apoptosis", "setting": "[1]", "result": "did not alter; also recorded: doesn't alter"},
      {"measurement": "cell cycle status", "setting": "[1]", "result": "did not alter; also recorded: doesn't alter"},
      {"measurement": "time the increase in percentage of polar cells remained stable after CASIN withdrawal", "setting": "[2]; aged LT-HSCs in vitro", "result": "≥ 6", "unit": "h"},
      {"measurement": "percentage of polarized cells (Cdc42 and tubulin)", "setting": "[2]; aged LT-HSCs, 2.5 and 5 μM CASIN", "result": "dose-dependent increase"},
      {"measurement": "number of stem cells in crypts (Bmi1 and Lgr5 staining)", "setting": "[3]; [8]", "result": "renewed number of stem cells"},
      {"measurement": "shape, size and distribution of villi and crypts", "setting": "[3]; [8]", "result": "marked improvement"},
      {"measurement": "shape, number and density of crypts", "setting": "[3]; aged mice, 2.4 mg/Kg twice daily for 5 days, after 28 days", "result": "marked improvement"},
      {"measurement": "skin thickness", "setting": "[4]; [9]", "result": "approximately equal to that of young mice"},
      {"measurement": "number and density of hair follicles", "setting": "[4]; aged mice, 2.4 mg/Kg twice daily for 5 days, after 28 days, vs untreated aged mice", "result": "marked improvement"},
      {"measurement": "wound healing", "setting": "[5]; [9]", "result": "respond similarly or nearly identical to the skin of young mice"},
      {"measurement": "loss of wound scabs begins", "setting": "[5]; [10]", "result": 17, "unit": "days"},
      {"measurement": "loss of wound scabs complete in all mice", "setting": "[5]; [10]", "result": "≤ 24", "unit": "days"},
      {"measurement": "skin thickness", "setting": "[6]", "result": "approximately equal to that of young mice"},
      {"measurement": "wound healing", "setting": "[6]", "result": "respond similarly or nearly identical to the skin of young mice"},
      {"measurement": "weight", "setting": "[7]", "result": "significant reduction; also recorded: weight loss"}
    ]}
  ]
}
